According to patent US11612577B2, “Biomarkers of METAP2 inhibitors and applications thereof” (SynDevRx, Inc., priority 2018, dated 2023):
Like-named read-outs stand apart in the source and are kept apart here. Values belong to the compound of their own block, whether it stands above or below them.

Assays:
[1] = BYL-719 induced hyperglycemia in C57Bl/6 mice, ZGN-1061 pre-treatment; type: in vivo
Method: The following is an example showing that MetAP2 inhibitors, specifically ZGN-1061 can be used in combination with PI3K inhibitors, specifically BYL-719, to treat cancer and to attenuate treatment-induced metabolic dysfunction. In this example, male C57BI/6 mice, age 10-12 weeks, were used. The mice (n=8/treatment group) were administered doses of either vehicle control (10 mM phosphate in 5% mannitol, pH 7.2), ZGN-1061 alone, ZGN-1061 in combination with BYL-719 or BYL-719 alone, as indicated in Table 4. In Table 4, the time of dose indicates the time relative to the administration of BYL-719. Blood glucose was monitored using 10 ul of blood taken from the tail of the mice and a glucometer, starting prior to the BYL-719 administration (time 0) and then again at various times points (15, 30, 60, 90, 120 and 180 minutes) after the administration of BYL-719.

[2] = cited from earlier work
[3] = cited from earlier work; remark: listed apart in the source
[4] = requires extended intravenous administration; cited from earlier work
[5] = human, in vivo; cited from earlier work

blood glucose ([1]; BYL-719 45 mg/kg PO, male C57Bl/6 mice): elicited robust hyperglycemia
Compound: Cc1nc(NC(=O)N2CCC[C@H]2C(N)=O)sc1-c1ccnc(C(C)(C)C(F)(F)F)c1 [BYL-719, alpelisib]

Compound: CO[C@@H]1[C@H](OC(=O)/C=C/c2ccc(OCCN(C)C)cc2)CC[C@]2(CO2)[C@H]1[C@@]1(C)O[C@@H]1CC=C(C)C [CKD-732]
body weight ([2]; C57BL/6J mice and SD rats, 5 mg/kg/day): weight loss
MTD ([3]; every fourth day schedule, confusion and insomnia): 15 mg/m2/day

Compound: CO[C@@H]1[C@H](OC(=O)NC(=O)CCl)CC[C@]2(CO2)[C@H]1[C@@]1(C)O[C@@H]1CC=C(C)C [TNP-470, chloroacetylcarbamoylfumagillol]
obesity ([2]; mice, 15 or 20 mg/kg every other day): prevention of obesity
body weight ([2]; ob/ob mice, daily doses 2.5 mg/kg to 10 mg/kg): weight loss
toxicity in humans ([3]; dose-limiting neurotoxicity): too toxic for human use
MTD ([3]; in combination with paclitaxel, dosed three times per week, neuropsychiatric toxicities): 60 mg/m2
half-life [4]: short half-life

Compound: CO[C@@H]1[C@H](OC(=O)N2CC(CCN3CCOCC3)C2)CC[C@]2(CO2)[C@H]1[C@@]1(C)O[C@@H]1CC=C(C)C [ZGN-1061]
hyperglycemia induced by BYL-719 ([1]; pre-treatment 0.5 mg/kg SC at -4 h, -24 h or -72 h (QD x3) before BYL-719 45 mg/kg PO): attenuated hyperglycemia

Compound: CO[C@@H]1[C@H](OC(=O)/C=C/C=C/C=C/C=C/C(=O)O)CC[C@]2(CO2)[C@H]1[C@@]1(C)O[C@@H]1CC=C(C)C [fumagillin]
body weight ([2]; C57BL/6 mice, oral 1 mg/kg daily): weight loss

Compound: pembrolizumab
patients with grade 3 or 4 hyperglycemia [5]: 3-6%
patients with hyperglycemic events [5]: 45-49%
